The values below come from US8580825B2, “Oxadiazole inhibitors of leukotriene production” (Boehringer Ingelheim International GmbH, priority 2010, dated 2013).

Test [1] concerns the target T1, recombinant human FLAP protein (Homo sapiens, UniProt P20292).
T1 construct: made in house; host or cells: Sf9 insect cells (100,000xg membrane fraction used)
T1 sequence (P20292 1-161): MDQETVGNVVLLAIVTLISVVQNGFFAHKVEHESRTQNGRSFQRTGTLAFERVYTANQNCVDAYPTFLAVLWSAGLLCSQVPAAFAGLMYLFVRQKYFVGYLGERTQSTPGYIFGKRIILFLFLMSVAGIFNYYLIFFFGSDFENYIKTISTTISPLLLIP
Description: FLAP binding assay (Scintillation Proximity Assay, displacement of [125I]L-691,831). The settings on record: for IC50: read-out: FLAP SPA IC50. As for the experimental part:
Compounds are assessed for the ability to bind to FLAP in a binding assay that measures compound-specific displacement of an iodinated (^125I) FLAP inhibitor via a Scintillation Proximity Assay format (adapted from S. Charleson et al., Mol. Pharmacol., 1992, 41, 873-879).
Cell pellets produced from sf9 insect cells expressing recombinant human FLAP protein are resuspended in buffer A [15 mM Tris-HCl (pH 7.5), 2 mM MgCl2, 0.3 mM EDTA, 1 mM PMSF]. The cells are lysed with a Dounce homogenizer and the material is centrifuged at 10,000×g for 10 minutes. The supernatant is then collected and centrifuged at 100,000×g for 60 minutes. To prepare membrane protein for an assay, an aliquot of the 100,000×g pellet is resuspended in 1 ml of buffer A, Dounce homogenized, and finally subjected to polytron mixing (30 seconds). Membrane protein (25 μl, 5 μg) is mixed with WGA SPA beads (Amersham) and stirred for 1 h. […] (final concentrations: beads, 200 μg/well; protein, 5 μg/well; [^125I] probe, 0.08 nM/well (17 nCi/well). The plates are shaken for 2 h before reading on a Microbeta plate reader. Non-specific binding is determined by the addition of 10 μM cold L-691,831 compound.

For test [2], the system named is synthesis of LTB4 in human whole blood. Description: human whole blood LTB4 production inhibition assay. The class given is cell-based. To be noted: calcimycin stimulated, read-out: hWB LTB4 IC50. As for the experimental part: Compounds are additionally tested in a human whole blood assay to determine their ability to inhibit the synthesis of LTB4 in a cellular system. Compounds are combined with heparinized human whole blood and incubated for 15 minutes at 37° C. Calcimycin (20 μM final, prepared in phosphate-buffered saline, pH 7.4) is then added and the mixture is incubated for another 30 minutes at 37° C. The samples are centrifuged for 5 min at low speed (1500×g) and the plasma layer is removed. Plasma LTB4 concentrations are then measured using an antibody-based homogenous time-resolved fluorescence method (CisBio, Bedford, Mass.).

For `CC(C)[C@](C)(c1ccc(-c2cnc(N)nc2)nc1)c1noc(-c2cnn(C3COC3)c2)n1` [Example 31, 5-{5-[(2R)-3-methyl-2-{5-[1-(oxetan-3-yl)-1H-pyrazol-4-yl]-1,2,4-oxadiazol-3-yl}butan-2-yl]pyridin-2-yl}pyrimidin-2-amine], the half-inhibitory concentration (IC50) in test [1] is 1.4 nM; in test [2], 12 nM.

`CC(C)C(C)(c1ccc(-c2cnc(N)nc2)nc1)c1noc(-c2ccc(NCC(C)(C)O)nn2)n1` (stereo not shown) [Example 32, 1-{[6-(3-{2-[6-(2-aminopyrimidin-5-yl)pyridin-3-yl]-3-methylbutan-2-yl}-1,2,4-oxadiazol-5-yl)pyridazin-3-yl]amino}-2-methylpropan-2-ol]: the IC50 in test [1] is 17.3 nM; in test [2] it was 860 nM.

For `CCOC(=O)C(C)(C)Cn1cc(-c2nc(C(C)(c3ccc(-c4cnc(N)nc4)nc3)C(C)C)no2)cn1` (stereo not shown) [Example 33, ethyl 3-[4-(3-{2-[6-(2-aminopyrimidin-5-yl)pyridin-3-yl]-3-methylbutan-2-yl}-1,2,4-oxadiazol-5-yl)-1H-pyrazol-1-yl]-2,2-dimethylpropanoate], the IC50 stood at 5.2 nM in test [1] and 210 nM in test [2].

Consider `CC(C)[C@](C)(c1ccc(-c2cnc(N)nc2)nc1)c1noc(-c2cnn(C(C)(C)CO)c2)n1` [Example 34, 2-[4-(3-{(2R)-2-[6-(2-aminopyrimidin-5-yl)pyridin-3-yl]-3-methylbutan-2-yl}-1,2,4-oxadiazol-5-yl)-1H-pyrazol-1-yl]-2-methylpropan-1-ol], for which the IC50 was determined as 6.6 nM in test [1] and 94 nM in test [2].

On to `CC(C)[C@@](C)(c1ccc(-c2cnc(N)nc2)nc1)c1noc(-c2cnn(C(C)(C)CO)c2)n1` [Example 35, 2-[4-(3-{(2S)-2-[6-(2-aminopyrimidin-5-yl)pyridin-3-yl]-3-methylbutan-2-yl}-1,2,4-oxadiazol-5-yl)-1H-pyrazol-1-yl]-2-methylpropan-1-ol], for which the half-maximal inhibitory concentration (IC50) was 210 nM in test [1] and 3200 nM in test [2].

`Cc1ccc(C)n1-c1ncc(-c2ccc(C(C)(c3noc(-c4cn[nH]c4)n3)C(C)C)cn2)cn1` (stereo not shown) [Example 36, 2-(2,5-dimethyl-1H-pyrrol-1-yl)-5-(5-{3-methyl-2-[5-(1H-pyrazol-4-yl)-1,2,4-oxadiazol-3-yl]butan-2-yl}pyridin-2-yl)pyrimidine]: in test [1] (read-out: FLAP SPA inhibition at 1 uM), the inhibition at 1 µM was 30%. For the same compound, the IC50 in test [2] was > 5000 nM.

Regarding `CC(C)[C@@](C)(c1ccc(-c2cnc(N)nc2)nc1)c1noc(-c2cnn(CC(C)(C)O)c2)n1` [Example 37, 1-[4-(3-{(2S)-2-[6-(2-aminopyrimidin-5-yl)pyridin-3-yl]-3-methylbutan-2-yl}-1,2,4-oxadiazol-5-yl)-1H-pyrazol-1-yl]-2-methylpropan-2-ol], the half-inhibitory concentration (IC50) is 168 nM in test [1] and > 5000 nM in test [2].

In the case of `CC(C)[C@](C)(c1ccc(-c2cnc(N)nc2)nc1)c1noc(-c2cnn(CC(C)(C)O)c2)n1` [Example 38, 1-[4-(3-{(2R)-2-[6-(2-aminopyrimidin-5-yl)pyridin-3-yl]-3-methylbutan-2-yl}-1,2,4-oxadiazol-5-yl)-1H-pyrazol-1-yl]-2-methylpropan-2-ol], the concentration for half-maximal inhibition (IC50) in test [1] stood at 6.4 nM; in test [2], 33 nM.

Take `CC(C)C(C)(c1ccc(-c2cnc(N)nc2)nc1)c1noc(-c2cnn(CC(C)(C)C(=O)O)c2)n1` (stereo not shown) [Example 39, 3-[4-(3-{2-[6-(2-aminopyrimidin-5-yl)pyridin-3-yl]-3-methylbutan-2-yl}-1,2,4-oxadiazol-5-yl)-1H-pyrazol-1-yl]-2,2-dimethylpropanoic acid]: the IC50 in test [1] was 20.4 nM; in test [2], > 5000 nM.

On to `CCNc1cnc(-c2nc([C@](C)(c3ccc(-c4cnc(N)nc4)nc3)C(C)C)no2)cn1` [Example 40, 5-{5-[(2S)-2-{5-[5-(ethylamino)pyrazin-2-yl]-1,2,4-oxadiazol-3-yl}-3-methylbutan-2-yl]pyridin-2-yl}pyrimidin-2-amine], for which the IC50 turned out to be 7.9 nM in test [1] and 100 nM in test [2].

Consider `CCNc1cnc(-c2nc([C@@](C)(c3ccc(-c4cnc(N)nc4)nc3)C(C)C)no2)cn1` [Example 41, 5-{5-[(2R)-2-{5-[5-(ethylamino)pyrazin-2-yl]-1,2,4-oxadiazol-3-yl}-3-methylbutan-2-yl]pyridin-2-yl}pyrimidin-2-amine], for which the figures for the IC50 in test [1] and in test [2] were 1.8 nM and 34 nM, respectively.

For `CCNc1ccc(-c2nc(C(C)(c3ccc(-c4cnc(N)nc4)nc3)C(C)C)no2)nn1` (stereo not shown) [Example 42, 6-(3-{2-[6-(2-aminopyrimidin-5-yl)pyridin-3-yl]-3-methylbutan-2-yl}-1,2,4-oxadiazol-5-yl)-N-ethylpyridazin-3-amine], the IC50 in test [1] was 8.3 nM; in test [2] it was 210 nM.

As to `CC(C)[C@](C)(c1ccc(-c2cnc(N)nc2)nc1)c1noc(-c2cn[nH]c2)n1` [Example 43, 5-(5-{(2R)-3-methyl-2-[5-(1H-pyrazol-4-yl)-1,2,4-oxadiazol-3-yl]butan-2-yl}pyridin-2-yl)pyrimidin-2-amine], the figures for the half-maximal inhibitory concentration (IC50) in test [1] and in test [2] were 1.2 nM and 32 nM, respectively.

For the compound `CC(C)[C@](C)(c1ccc(-c2cnc(N)nc2)nc1)c1noc(-c2cnn(CC(F)F)c2)n1` [Example 44], the IC50 in test [1] came to 0.9 nM; in test [2], 24 nM.

With `CC(C)[C@@](C)(c1ccc(-c2cnc(N)nc2)nc1)c1noc(-c2cnn(CC(F)F)c2)n1` [Example 45, 5-{5-[(2S)-2-{5-[1-(2,2-difluoroethyl)-1H-pyrazol-4-yl]-1,2,4-oxadiazol-3-yl}-3-methylbutan-2-yl]pyridin-2-yl}pyrimidin-2-amine], the half-maximal inhibitory concentration (IC50) in test [1] is 141 nM; in test [2] it was 1400 nM.

Consider `COCCOCCn1cc(-c2nc([C@@](C)(c3ccc(-c4cnc(N)nc4)nc3)C(C)C)no2)cn1` [Example 46, 5-{5-[(2R)-2-(5-{1-[2-(2-methoxyethoxy)ethyl]-1H-pyrazol-4-yl}-1,2,4-oxadiazol-3-yl)-3-methylbutan-2-yl]pyridin-2-yl}pyrimidin-2-amine], for which the values for the IC50 in test [1] and in test [2] were 5 nM and 98 nM, respectively.

For the compound `COCCOCCn1cc(-c2nc([C@](C)(c3ccc(-c4cnc(N)nc4)nc3)C(C)C)no2)cn1` [Example 47, 5-{5-[(2S)-2-(5-{1-[2-(2-methoxyethoxy)ethyl]-1H-pyrazol-4-yl}-1,2,4-oxadiazol-3-yl)-3-methylbutan-2-yl]pyridin-2-yl}pyrimidin-2-amine], the IC50 in test [1] was 180 nM; in test [2], 2000 nM.

Turning to `CC(C)[C@](C)(c1ccc(-c2cnc(N)nc2)nc1)c1noc(-c2cnn(CCF)c2)n1` [Example 48, 5-{5-[(2R)-2-{5-[1-(2-fluoroethyl)-1H-pyrazol-4-yl]-1,2,4-oxadiazol-3-yl}-3-methylbutan-2-yl]pyridin-2-yl}pyrimidin-2-amine], the results for the IC50 in test [1] and in test [2] were 2.6 nM and 20 nM, respectively.

As to `CC(C)[C@@](C)(c1ccc(-c2cnc(N)nc2)nc1)c1noc(-c2cnn(CCF)c2)n1` [Example 49, 5-{5-[(2S)-2-{5-[1-(2-fluoroethyl)-1H-pyrazol-4-yl]-1,2,4-oxadiazol-3-yl}-3-methylbutan-2-yl]pyridin-2-yl}pyrimidin-2-amine], the IC50 came to 80.9 nM in test [1] and 1100 nM in test [2].

For the compound `Cn1cc(-c2nc(C(C)(c3ccc(-c4cnc(N)nc4)nc3)C3CC3)no2)cn1` (stereo not shown) [Example 50, 5-(5-{1-cyclopropyl-1-[5-(1-methyl-1H-pyrazol-4-yl)-1,2,4-oxadiazol-3-yl]ethyl}pyridin-2-yl)pyrimidin-2-amine], the IC50 was found to be 9.5 nM in test [1] and 110 nM in test [2].

Regarding `CC(C)[C@](C)(c1ccc(-c2cnc(N)nc2)nc1)c1noc(-c2cnc(N3CCNCC3)cn2)n1` [Example 51, 5-{5-[(2R)-3-methyl-2-{5-[5-(piperazin-1-yl)pyrazin-2-yl]-1,2,4-oxadiazol-3-yl}butan-2-yl]pyridin-2-yl}pyrimidin-2-amine], the IC50 came out at 3 nM in test [1] and 160 nM in test [2].

As for `CC(C)[C@@](C)(c1ccc(-c2cnc(N)nc2)nc1)c1noc(-c2cnc(N3CCNCC3)cn2)n1` [Example 52, 5-{5-[(2S)-3-methyl-2-{5-[5-(piperazin-1-yl)pyrazin-2-yl]-1,2,4-oxadiazol-3-yl}butan-2-yl]pyridin-2-yl}pyrimidin-2-amine], the half-inhibitory concentration (IC50) came to 14 nM in test [1] and 270 nM in test [2].

In the case of `CNC(=O)Cn1cc(-c2nc([C@@](C)(c3ccc(-c4cnc(N)nc4)nc3)C(C)C)no2)cn1` [Example 53, 2-[4-(3-{(2R)-2-[6-(2-aminopyrimidin-5-yl)pyridin-3-yl]-3-methylbutan-2-yl}-1,2,4-oxadiazol-5-yl)-1H-pyrazol-1-yl]-N-methylacetamide], the half-maximal inhibitory concentration (IC50) in test [1] was 12.7 nM; in test [2] it was 230 nM.
